Experimental data as given in US20260297016A1, “THERAPEUTIC COMPOUNDS” (REGENTS OF THE UNIVERSITY OF MINNESOTA, priority 2023, published 2026).

How the values were obtained:
human PPARα = biological target: T1, human PPARα (Homo sapiens, UniProt Q07869); experiment: Cell-based Luciferase Assay, human PPARα agonist activity (Indigo Biosciences hPPARα IB00111); conditions: for activation at 0.5 µM: read-out: % PPAR-alpha AGONISM, % at 0.5 μm; for activation at 5 µM: read-out: % PPAR-alpha AGONISM, % at 5 μm; for activation at 50 µM: read-out: % PPAR-alpha AGONISM, % at 50 μm
T1 construct: borders undisclosed
T1 sequence (Q07869 1-468): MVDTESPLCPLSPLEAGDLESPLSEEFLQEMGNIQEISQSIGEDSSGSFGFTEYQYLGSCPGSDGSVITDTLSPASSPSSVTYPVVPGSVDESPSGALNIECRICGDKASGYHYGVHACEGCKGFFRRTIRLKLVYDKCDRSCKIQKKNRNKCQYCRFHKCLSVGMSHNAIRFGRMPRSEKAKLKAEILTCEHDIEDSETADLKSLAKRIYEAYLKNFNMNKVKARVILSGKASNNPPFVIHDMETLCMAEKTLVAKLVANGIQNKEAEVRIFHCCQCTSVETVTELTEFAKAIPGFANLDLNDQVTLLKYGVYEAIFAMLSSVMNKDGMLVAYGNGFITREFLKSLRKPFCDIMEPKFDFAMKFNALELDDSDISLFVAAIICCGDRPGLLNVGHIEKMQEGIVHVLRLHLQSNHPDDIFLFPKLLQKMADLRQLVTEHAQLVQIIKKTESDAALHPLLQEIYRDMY
Source text: Cell-based Luciferase Assay. […] Luminescence was quantified using a GloMax Explorer (Promega).

STING = biological target: T2, STING (Homo sapiens, UniProt Q86WV6, G230A/H232R/R293Q/R71H); experiment: IRF-Lucia Reporter STING Inhibition Assay (THP-1 Lucia ISG cells); format: cell-based; conditions: 1 μM 2,3-cGAMP, 20 hours
T2 construct: THP-1 Lucia ISG cells (InvivoGen, thpl-isg); host or cells: THP-1 Lucia ISG cells
T2 sequence (Q86WV6 whole entry R71H/G230A/H232R/R293Q): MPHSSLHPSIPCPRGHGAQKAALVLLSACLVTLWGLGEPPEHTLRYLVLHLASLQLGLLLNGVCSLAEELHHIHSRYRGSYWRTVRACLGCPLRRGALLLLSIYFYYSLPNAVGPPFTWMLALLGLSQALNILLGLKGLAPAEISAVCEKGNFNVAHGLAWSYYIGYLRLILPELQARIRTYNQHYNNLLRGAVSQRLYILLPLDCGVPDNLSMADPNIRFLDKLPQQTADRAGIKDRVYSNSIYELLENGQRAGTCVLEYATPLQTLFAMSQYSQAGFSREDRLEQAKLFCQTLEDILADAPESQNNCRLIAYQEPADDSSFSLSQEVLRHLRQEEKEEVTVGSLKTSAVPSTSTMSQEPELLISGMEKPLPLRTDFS
Procedure: IRF-Lucia Reporter STING Inhibition Assay. […] Cells were incubated at 37° C. in a 5% CO2 atmosphere with varying concentrations of test compound for 1.5 hours, followed by treatment with 1 μM 2,3-cGAMP (InvivoGen, tlrl-nacga23-02) and incubated for 20 hours. A 20 μL aliquot of cell suspension was added to 50 μL. QUANTI-Luc™ reagent (InvivoGen, rep-qlc4lg2), and the resulting luminescence is measured by a GloMax Explorer (Promega) with a 0.1 second read time.

activation at 0.5 µM (human PPARα)	activation at 5 µM (human PPARα)	activation at 50 µM (human PPARα)	% STING INHIBITION, % at 12.5 μm (STING)	% STING INHIBITION, % at 25 μm (STING)	% STING INHIBITION, % at 50 μm (STING)	PPAR-alpha agonism of the positive control (human PPARα; 90 nM)	Compound	cytotoxicity of the positive control (human PPARα; 90 nM)
35.6%	125%	55.1%					O=C(O)c1cccc(NCc2ccc(-c3ccc(F)cc3)cc2)c1 [Example 1, 3-(((4′-Fluoro-[1,1′-biphenyl]-4-yl)methyl)amino)benzoic acid]	
74.7%	103%	27.4%					O=C(O)c1cccc(NCc2ccc(-c3ccc(C(F)(F)F)cc3)cc2)c1 [Example 2, 3-(((4′-(Trifluoromethyl)-[1,1′-biphenyl]-4-yl)methyl)amino)benzoic acid]	
32.9%	112%	98.3%					COc1ccc(-c2ccc(CNc3cccc(C(=O)O)c3)cc2)cc1 [Example 3, 3-(((4′-Methoxy-[1,1′-biphenyl]-4-yl)methyl)amino)benzoic acid]	
73.7%	120%	20.9%					O=C(O)c1cccc(NCc2ccc(-c3ccc(C(F)(F)F)cc3)cc2)c1F [Example 4, 2-Fluoro-3-(((4′-(trifluoromethyl)-[1,1′-biphenyl]-4-yl)methyl)amino)benzoic acid]	
67.4%	92.5%	54.4%					O=C(O)c1cc(NCc2ccc(-c3ccc(C(F)(F)F)cc3)cc2)ccc1F [Example 5, 2-Fluoro-5-(((4′-(trifluoromethyl)-[1,1′-biphenyl]-4-yl)methyl)amino)benzoic acid]	
6.6%	98%	68.1%					O=C(O)c1ccc(F)c(NCc2ccc(-c3ccc(C(F)(F)F)cc3)cc2)c1 [Example 7, 4-Fluoro-3-(((4′-(trifluoromethyl)-[1,1′-biphenyl]-4-yl)methyl)amino)benzoic acid]	
17.6%	50.3%	95.2%					O=C(O)c1cc(F)cc(NCc2ccc(-c3ccccc3)cc2)c1 [Example 8, 3-(([1,1′-Biphenyl]-4-ylmethyl)amino)-5-fluorobenzoic Acid]	
8%	49.6%	46.8%					O=C(O)c1cc(F)cc(NCc2ccc(-c3ccc(C(F)(F)F)cc3)cc2O)c1 [Example 9, 3-Fluoro-5-(((3-hydroxy-4′-(trifluoromethyl)-[1,1′-biphenyl]-4-yl)methyl)amino)benzoic Acid]	
0%	37.2%	17.4%					O=C(O)c1cc(F)cc(NCc2cc(Cl)c(-c3ccc(C(F)(F)F)cc3)c(Cl)c2)c1 [Example 10, 3-(((2,6-Dichloro-4′-(trifluoromethyl)-[1,1′-biphenyl]-4-yl)methyl)amino)-5-fluorobenzoic acid]	
14.1%	46.3%	26.5%					Cc1cc(CNc2cc(F)cc(C(=O)O)c2)ccc1-c1ccc(C(F)(F)F)cc1C [Example 12, 3-(((2,2′-Dimethyl-4′-(trifluoromethyl)-[1,1′-biphenyl]-4-yl)methyl)amino)-5-fluorobenzoic Acid]	
38.3%	47.4%	27.5%					Cc1cc(C(F)(F)F)ccc1-c1ccc(CNc2cc(F)cc(C(=O)O)c2)cc1 [Example 13, 3-Fluoro-5-(((2′-methyl-4′-(trifluoromethyl)-[1,1′-biphenyl]-4-yl)methyl)amino)benzoic Acid]	
7%	58.7%	83.8%					N#Cc1ccc(-c2ccc(CNc3cc(F)cc(C(=O)O)c3)cc2)cc1 [Example 14, 3-(((4′-Cyano-[1,1′-biphenyl]-4-yl)methyl)amino)-5-fluorobenzoic Acid]	
38.2%	106%	96%					COc1ccc(-c2ccc(CNc3cc(F)cc(C(=O)O)c3)cc2)cc1 [Example 16, 3-Fluoro-5-(((4′-methoxy-[1,1′-biphenyl]-4-yl)methyl)amino)benzoic acid]	
38.6%	80%	87.8%					O=C(O)c1cc(F)cc(NCc2ccc(-c3ccc(Cl)cc3)cc2)c1 [Example 18, 3-(((4′-Chloro-[1,1′-biphenyl]-4-yl)methyl)amino)-5-fluorobenzoic acid]	
40.6%	101%	98.9%					Cc1ccc(-c2ccc(CNc3cc(F)cc(C(=O)O)c3)cc2)cc1 [Example 19, 3-Fluoro-5-(((4′-methyl-[1,1′-biphenyl]-4-yl)methyl)amino)benzoic acid]	
38.2%	58.5%	48%					O=C(O)c1cc(F)cc(NCc2ccc(-c3ccc(C4CCCC4)cc3)cc2)c1 [Example 20, 3-(((4′-Cyclopentyl-[1,1′-biphenyl]-4-yl)methyl)amino)-5-fluorobenzoic acid]	
22.1%	62.2%	42.1%					O=C(O)c1cc(F)cc(NCc2ccc(-c3ccc(C(F)(F)F)cc3)cn2)c1 [Example 22, 3-Fluoro-5-(((5-(4-(trifluoromethyl)phenyl)pyridin-2-yl)methyl)amino)benzoic Acid]	
15.7%	83.3%	74.9%					O=C(O)c1cc(F)cc(NCc2cnc(-c3ccc(C(F)(F)F)cc3)s2)c1 [Example 24, 3-fluoro-5-(((2-(4-(trifluoromethyl)phenyl)thiazol-5-yl)methyl)amino)benzoic Acid]	
21.7%	88.7%	42.4%					O=C(O)c1cc(F)cc(NCc2csc(-c3ccc(C(F)(F)F)cc3)n2)c1 [Example 25, 3-fluoro-5-(((2-(4-(trifluoromethyl)phenyl)thiazol-4-yl)methyl)amino)benzoic Acid]	
10.6%	14.2%	50%					O=C(O)c1cc(F)cc(NCc2csc(-c3ccc(F)cc3)n2)c1 [Example 26, 3-fluoro-5-(((2-(4-fluorophenyl)thiazol-4-yl)methyl)amino)benzoic Acid]	
51.1%	94.3%	58.5%					O=C(O)c1cccc(NCc2cn(-c3ccc(C(F)(F)F)cc3)nn2)c1 [Example 27, 3-(((1-(4-(trifluoromethyl)phenyl)-1H-1,2,3-triazol-4-yl)methyl)amino)benzoic Acid]	
13.1%	21.5%	58.6%					O=C(O)c1cccc(NCc2cn(-c3ccc(F)cc3)nn2)c1 [Example 28, 3-(((1-(4-fluorophenyl)-1H-1,2,3-triazol-4-yl)methyl)amino)benzoic Acid]	
27%	139%	91%					O=C(O)c1cc(F)cc(NCc2cn(-c3ccc(C(F)(F)F)cc3)nn2)c1 [Example 29, 3-fluoro-5-(((1-(4-(trifluoromethyl)phenyl)-1H-1,2,3-triazol-4-yl)methyl)amino)benzoic Acid]	
9.6%	19.1%	48.8%					O=C(O)c1cc(F)cc(NCc2cn(-c3ccc(F)cc3)nn2)c1 [Example 30, 3-fluoro-5-(((1-(4-fluorophenyl)-1H-1,2,3-triazol-4-yl)methyl)amino)benzoic Acid]	
			28%	43%	64%		O=C(O)c1cc(NCc2ccc(-c3ccc(C(F)(F)F)cc3)cc2)ccc1O [Example 32, 2-hydroxy-5-(((4′-(trifluoromethyl)-[1,1′-biphenyl]-4-yl)methyl)amino)benzoic acid]	
			0%	0%	0%		COc1ccc(-c2ccc(CNc3ccc(O)c(C(=O)O)c3)cc2)cc1 [Example 33]	
			0%	0%	0%		CS(=O)(=O)c1ccc(-c2ccc(CNc3ccc(O)c(C(=O)O)c3)cc2)cc1 [Example 34, 2-Hydroxy-5-(((4′-(methylsulfonyl)-[1,1′-biphenyl]-4-yl)methyl)amino)benzoic acid]	
			0%	0%	0%		O=C(O)c1cc(NCc2ccc(-c3ccc(O)cc3)cc2)ccc1O [Example 35, 2-Hydroxy-5-(((4′-hydroxy-[1,1′-biphenyl]-4-yl)methyl)amino)benzoic acid]	
						full agonism	CC(C)(Sc1ccc(CCN(CCCCC2CCCCC2)C(=O)NC2CCCCC2)cc1)C(=O)O [GW7647, reference compound]	without signs of cytotoxicity
